Source: ChEMBL document CHEMBL1201862, “PubChem BioAssay data set” (2004)
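Five concentrations, 48 hours, 96-well plates. Here, GI50 denotes the concentration required for 50% inhibition of growth.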 The source made the active and inactive calls. Cut-off read from the data, not from the text of the source: active = GI50 up to about 1.1 µM and inactive = higher.

Experiments:
Assay in all cases: inhibition of tumour cell growth, NCI panel, 48 h
[1] = system: 786-0
[2] = system: DMS-273
[3] = system: HCT-116
[4] = system: HCT-15
[5] = system: HT-29
[6] = system: KM12
[7] = system: LOX IMVI
[8] = system: MOLT-4
[9] = system: OVCAR-8
[10] = system: RXF 393
[11] = system: SF-268
[12] = system: SF-295
[13] = system: SK-MEL-2
[14] = system: SK-MEL-5
[15] = system: SK-OV-3
[16] = system: HCC 2998
[17] = system: BT-549
[18] = system: DU-145
[19] = system: MDA-MB-435
[20] = system: NCI/ADR-RES

Measured: GI50

CN(C)C(=O)Nc1c([N+](=O)[O-])cc(C(F)(F)F)cc1[N+](=O)[O-]
inactive: [1] > 100 µM | [2] 43.8 µM | [3] 24.6 µM | [5] 35 µM | [6] 37 µM | [7] 28.8 µM | [8] 78.5 µM | [9] 40.4 µM | [10] 8.45 µM | [11] > 100 µM | [12] 63.4 µM | [13] 58.7 µM | [14] 17.2 µM | [15] > 100 µM
37.1 µM: [4]

Cc1ccc(C)c(N2C(=O)C(=O)C(c3nc4ccccc4o3)C(=O)C2=O)c1
99.5 µM: [4]
inactive: [1] > 100 µM | [2] > 100 µM | [16] > 100 µM | [3] 27.1 µM | [5] 49.5 µM | [6] > 100 µM | [8] 27.2 µM | [9] > 100 µM | [10] > 100 µM | [11] > 100 µM | [12] > 100 µM | [13] > 100 µM | [14] 67.5 µM | [15] > 100 µM

Nc1nc2ncn(CC(O)COC(=O)c3ccccc3)c2c(=O)[nH]1 (stereo not given)
inactive: [1] > 100 µM | [2] > 100 µM | [3] > 100 µM | [5] > 100 µM | [6] > 100 µM | [7] > 100 µM | [9] > 100 µM | [10] > 100 µM | [11] > 100 µM | [12] > 100 µM | [13] > 100 µM | [14] > 100 µM | [15] > 100 µM
> 100 µM: [4]

CCC1(Cl)C(=O)NC(=O)N(C2CC(O)C(CO)O2)C1N=[N+]=[N-] (stereo not given)
inactive: [1] > 100 µM | [2] > 100 µM | [16] > 100 µM | [5] > 100 µM | [7] > 100 µM | [8] > 100 µM | [9] > 100 µM | [10] 41.2 µM | [11] > 100 µM | [12] > 100 µM | [13] > 100 µM | [14] > 100 µM | [15] > 100 µM

Cc1cn(C2CC3C(COCN3O)O2)c(=O)[nH]c1=O (stereo not given)
inactive: [1] > 100 µM | [2] > 100 µM | [16] > 100 µM | [3] > 100 µM | [5] > 100 µM | [6] > 100 µM | [7] > 100 µM | [8] > 100 µM | [9] > 100 µM | [10] > 100 µM | [11] > 100 µM | [12] > 100 µM | [14] > 100 µM | [15] > 100 µM
> 100 µM: [4]

O=C1c2ccccc2C(=O)[C@@]23O[C@@]12C1(Oc2cccc4cccc(c24)O1)[C@@H]1O[C@@H]1[C@@H]3O
inactive: [1] 4.23 µM | [17] 2.9 µM | [18] 14.6 µM | [16] 6.17 µM | [3] 4.4 µM | [5] 4.94 µM | [6] 14 µM | [7] 4.22 µM | [19] 17.2 µM | [8] 2.7 µM | [20] 5.05 µM | [9] 4.71 µM | [10] 2.95 µM | [11] 9.68 µM | [12] 12.9 µM | [13] 19.2 µM | [14] 24.4 µM | [15] 15.1 µM
5.01 µM: [4]

CO/C(N)=C(C#N)/N=C/c1ccco1
inactive: [1] > 100 µM | [17] > 100 µM | [18] > 100 µM | [16] > 100 µM | [3] > 100 µM | [5] > 100 µM | [6] > 100 µM | [7] > 100 µM | [19] > 100 µM | [8] > 100 µM | [20] > 100 µM | [9] > 100 µM | [10] > 100 µM | [11] > 100 µM | [12] > 100 µM | [13] > 100 µM | [14] > 100 µM | [15] > 100 µM
> 100 µM: [4]
